Assays:
[1] = target: SARS-CoV-2 S-RBD/ACE2 interaction (UniProt P0DTC2+Q9BYF1); assay: cell-based; set-up: species or system SARS-CoV-2 / human; settings: for inhibition at 20 µM / inhibition at 50 µM: HEK293; for IC50: HEK293 cells, 3 h incubation, n = 3, read-out: IC50 NanoBiT (inhibition of SARS-CoV-2 S-RBD/ACE2 interaction)
NanoLuc luciferase = NanoLuc luciferase (Oplophorus gracilirostris, UniProt Q9GV45, A31E/A60N/A81I/F95D/I117V/K70R/L54V/L99Q/M102K/N193R/P142E/Q151K/Q38R/Q45L/V71I/Y165I); assay: cell-based; settings: read-out: IC50 NanoLuc (inhibition of NanoLuc luciferase)
Sequence of NanoLuc luciferase (Q9GV45 other isoform, or with tags, fused parts or gaps with the stated changes): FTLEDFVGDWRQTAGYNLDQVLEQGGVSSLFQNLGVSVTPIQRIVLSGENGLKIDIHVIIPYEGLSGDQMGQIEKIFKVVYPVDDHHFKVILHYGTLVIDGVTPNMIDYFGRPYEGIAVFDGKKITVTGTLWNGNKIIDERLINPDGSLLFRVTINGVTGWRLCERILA

SARS-CoV-2-S pseudovirus = assay: microbe, parasite or virus in culture; format: cell-based; settings: for IC50: Pseudovirus, HEK-293T, read-out: IC50 of Anti-SARS-CoV-2-S pseudovirus; for %I, SARS-CoV-2-S pseudovirus inhibition ratio at MNCC: fitted from the inhibition curve
human ACE2 = human ACE2 (Homo sapiens, UniProt Q9BYF1); assay: SPR binding assay, immobilized ACE2 (BIAcore T200); settings: for Kd: immobilized ACE2, PBS pH 7.4, 25°C; for Binding to human ACE2 by SPR (in words): up to 100,000 nM analyte
Sequence of human ACE2 (Q9BYF1 18-805): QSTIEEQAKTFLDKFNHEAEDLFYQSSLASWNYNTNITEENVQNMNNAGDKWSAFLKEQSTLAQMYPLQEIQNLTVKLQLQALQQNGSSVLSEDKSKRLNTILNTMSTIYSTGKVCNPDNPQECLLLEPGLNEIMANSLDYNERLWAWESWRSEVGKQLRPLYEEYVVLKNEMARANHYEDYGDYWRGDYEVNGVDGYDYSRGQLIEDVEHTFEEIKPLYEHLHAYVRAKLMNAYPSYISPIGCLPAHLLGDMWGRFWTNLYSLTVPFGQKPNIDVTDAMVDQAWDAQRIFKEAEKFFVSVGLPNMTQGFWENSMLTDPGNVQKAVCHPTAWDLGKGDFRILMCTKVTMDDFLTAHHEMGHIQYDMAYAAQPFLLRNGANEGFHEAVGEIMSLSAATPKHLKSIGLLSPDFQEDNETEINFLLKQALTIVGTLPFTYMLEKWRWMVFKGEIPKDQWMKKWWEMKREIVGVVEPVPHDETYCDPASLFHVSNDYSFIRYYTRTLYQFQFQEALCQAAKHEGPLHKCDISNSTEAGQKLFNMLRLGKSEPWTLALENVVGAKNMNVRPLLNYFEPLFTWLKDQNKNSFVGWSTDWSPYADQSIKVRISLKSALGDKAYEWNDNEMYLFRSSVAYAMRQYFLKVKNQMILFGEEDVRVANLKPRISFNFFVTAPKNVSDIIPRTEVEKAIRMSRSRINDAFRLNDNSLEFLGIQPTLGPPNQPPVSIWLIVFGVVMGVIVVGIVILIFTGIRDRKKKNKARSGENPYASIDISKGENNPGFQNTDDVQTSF
Experimental: A BIAcore T200 instrument (GE Healthcare Life Sciences, United States) was used to evaluate the binding affinity of the test compounds to human ACE2 or SARS-CoV-2 S-RBD as previously described ([Li et al., 2017]). Briefly, both proteins were respectively immobilized on the different channels of CM5 sensor chip by a standard amine-coupling approach at a flow rate of 10 μL/min in 10 mM sodium acetate buffer (pH 4.0). The sensor surface was activated with a 7 min injection of the mixture of 50 mM N-hydroxysuccinimide (NHS) and 200 mM 1-ethyl-3-(3-dimethylaminopropyl) carbodiimide (EDC). Then 10 μg/ml of human ACE2 or 50 μg/ml of SARS-CoV-2 S-RBD was injected for 420 s and the surface was blocked with 1 M ethanolamine, pH 8.5. Series concentrations of the test compounds were injected into the flow system at a flow rate of 30 μL/min for 90 s, and the dissociation was 120 s. All binding analysis was performed in phosphate buffered saline (PBS) with 0.05% (v/v) Tween-20 and 1% DMSO (pH 7.4) at 25°C. Prior to analysis, double reference subtractions and solvent corrections were made to eliminate bulk refractive index changes, injection noise, and data drift. The binding affinity was determined by fitting to a Langmuir 1:1 binding model within the BIAcore Evaluation software (GE Healthcare Life Sciences, United States).

SARS-CoV-2 S-RBD = SARS-CoV-2 S-RBD (Severe acute respiratory syndrome coronavirus 2, UniProt P0DTC2); assay: SPR binding assay, immobilized S-RBD (BIAcore T200); settings: for Kd: immobilized S-RBD, PBS pH 7.4, 25°C; for Binding to SARS-CoV-2 S-RBD by SPR (in words): up to 100,000 nM analyte
HEK293 cells = settings: human
[2] = tested on: ACE2-expressing HEK293T cells; settings: concentration required to retain cell viability by 90%
in vitro = settings: human
SARS-CoV-2 pseudovirus = settings: cited from earlier work

Sequence of SARS-CoV-2 S-RBD/ACE2 interaction (Q9BYF1 19-615 limits assumed, other chains not shown): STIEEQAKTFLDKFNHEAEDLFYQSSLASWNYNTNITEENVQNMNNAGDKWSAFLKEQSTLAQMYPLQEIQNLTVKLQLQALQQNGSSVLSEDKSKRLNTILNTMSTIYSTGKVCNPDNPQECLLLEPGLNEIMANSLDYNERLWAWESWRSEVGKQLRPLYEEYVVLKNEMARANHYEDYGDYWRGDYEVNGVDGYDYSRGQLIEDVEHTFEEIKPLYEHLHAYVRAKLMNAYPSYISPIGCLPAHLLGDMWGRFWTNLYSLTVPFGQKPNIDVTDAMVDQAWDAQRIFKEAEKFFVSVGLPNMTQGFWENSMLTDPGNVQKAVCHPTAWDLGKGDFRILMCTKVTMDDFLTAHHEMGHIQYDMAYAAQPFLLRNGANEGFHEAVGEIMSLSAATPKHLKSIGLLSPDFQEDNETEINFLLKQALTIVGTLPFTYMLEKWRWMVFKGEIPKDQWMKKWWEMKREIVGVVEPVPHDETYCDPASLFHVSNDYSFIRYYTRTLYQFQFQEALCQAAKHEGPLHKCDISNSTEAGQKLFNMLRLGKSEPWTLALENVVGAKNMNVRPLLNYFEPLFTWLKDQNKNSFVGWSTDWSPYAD

O=C(N/N=C/c1cc([N+](=O)[O-])ccc1Cl)c1cccc(Br)c1 [DC-RA016-1]
inhibition at 20 µM [1]: 3.1%
inhibition at 50 µM [1]: 7.4%

O=C(N/N=C/c1cc([N+](=O)[O-])ccc1Cl)c1ccccc1I [DC-RA016-2]
inhibition at 20 µM [1]: 0.8%
inhibition at 50 µM [1]: 22.5%

O=C(N/N=C/c1cc([N+](=O)[O-])ccc1Cl)c1cccc([N+](=O)[O-])c1 [DC-RA016-3]
inhibition at 20 µM [1]: 1.7%
inhibition at 50 µM [1]: 24.2%

Cc1ccccc1C(=O)N/N=C/c1cc([N+](=O)[O-])ccc1Cl [DC-RA016-4]
inhibition at 20 µM [1]: -3.8%
inhibition at 50 µM [1]: -24.9%

O=C(N/N=C/c1cc([N+](=O)[O-])ccc1Cl)c1ccccc1O [DC-RA016-5]
inhibition at 20 µM [1]: 8.7%
inhibition at 50 µM [1]: 24.9%

O=C(N/N=C/c1cc([N+](=O)[O-])ccc1Cl)c1ccc(O)cc1O [DC-RA016-6]
inhibition at 20 µM [1]: 1.9%
inhibition at 50 µM [1]: 2.9%

O=C(N/N=C/c1cc([N+](=O)[O-])ccc1Cl)c1ccc(O)cc1 [DC-RA016-7]
inhibition at 20 µM [1]: 10.6%
inhibition at 50 µM [1]: 20.2%

O=C(N/N=C/c1cc([N+](=O)[O-])ccc1Cl)c1ccc(O)c(O)c1 [DC-RA016-8]
inhibition at 20 µM [1]: 6.7%
inhibition at 50 µM [1]: -18.3%

O=C(N/N=C/c1ccccc1O)c1cc(O)cc(O)c1 [DC-RA016-9]
inhibition at 20 µM [1]: 0.6%
inhibition at 50 µM [1]: 88.6%
IC50 [1]: 73.8 µM

Cc1ccccc1/C=N/NC(=O)c1cc(O)cc(O)c1 [DC-RA016-10]
inhibition at 20 µM [1]: -6.5%
inhibition at 50 µM [1]: -17.7%

Cc1cccc(/C=N/NC(=O)c2cc(O)cc(O)c2)c1 [DC-RA016-11]
inhibition at 20 µM [1]: 4.8%
inhibition at 50 µM [1]: 12.7%

O=C(N/N=C/c1ccc(Cl)c([N+](=O)[O-])c1)c1cc(O)cc(O)c1 [DC-RA016-12]
inhibition at 20 µM [1]: 61.3%
inhibition at 50 µM [1]: 88.9%
IC50 [1]: 26.1 µM

O=C(N/N=C/c1cc([N+](=O)[O-])ccc1Cl)c1cc(O)cc(O)c1 [DC-RA016]
inhibition at 20 µM [1]: 73.1%
inhibition at 50 µM [1]: 73.1%
IC50 [1]: 26.6 µM
IC50 (NanoLuc luciferase): > 100 µM
SI, selectivity index (SARS-CoV-2-S pseudovirus): >4.46
IC50 (SARS-CoV-2-S pseudovirus): 22.4 µM
%I, SARS-CoV-2-S pseudovirus inhibition ratio at MNCC (SARS-CoV-2-S pseudovirus): 52.08%
Kd (human ACE2): 147 µM
Binding to human ACE2 by SPR (in words) (human ACE2): could bind
Kd (SARS-CoV-2 S-RBD): 85.1 µM
Binding to SARS-CoV-2 S-RBD by SPR (in words) (SARS-CoV-2 S-RBD): showed binding
CC50 / IC50 Cytotox (HEK293 cell proliferation) (HEK293 cells): > 100.00 µM
MNCC, maximum non-cytotoxic concentration [2]: 95.81 µM
CC50 (in vitro): > 100 µM

COc1ccc(C(=O)C[C@]2(O)C(=O)N(CCOc3ccccc3OC)c3ccccc32)c(OC)c1 [DC-RA076]
IC50 [1]: 75.6 µM
IC50 (NanoLuc luciferase): > 100 µM
SI, selectivity index (SARS-CoV-2-S pseudovirus): 2.95
IC50 (SARS-CoV-2-S pseudovirus): 8.37 µM
%I, SARS-CoV-2-S pseudovirus inhibition ratio at MNCC (SARS-CoV-2-S pseudovirus): 5.75%
Binding to human ACE2 by SPR (in words) (human ACE2): no binding
Binding to SARS-CoV-2 S-RBD by SPR (in words) (SARS-CoV-2 S-RBD): no binding
CC50 / IC50 Cytotox (HEK293 cell proliferation) (HEK293 cells): > 100.00 µM
MNCC, maximum non-cytotoxic concentration [2]: 2.64 µM
CC50 (in vitro): 24.7 µM

COc1cc(-c2nc3ccccc3s2)ccc1OCC(=O)Nc1ccc(C)cc1 [DC-RA087]
IC50 [1]: 86.2 µM
IC50 (NanoLuc luciferase): > 100 µM
SI, selectivity index (SARS-CoV-2-S pseudovirus): >4.75
IC50 (SARS-CoV-2-S pseudovirus): 21.1 µM
%I, SARS-CoV-2-S pseudovirus inhibition ratio at MNCC (SARS-CoV-2-S pseudovirus): 36.74%
kd to ACE2 (SPR) (human ACE2; immobilized ACE2): 0.3217 s⁻¹
kon (human ACE2; pH 7.4, immobilized ACE2, read-out: ka to ACE2 (SPR)): 56.4 M⁻¹ s⁻¹
Binding to human ACE2 by SPR (in words) (human ACE2): could bind
Binding to SARS-CoV-2 S-RBD by SPR (in words) (SARS-CoV-2 S-RBD): No binding
CC50 / IC50 Cytotox (HEK293 cell proliferation) (HEK293 cells): > 100.00 µM
MNCC, maximum non-cytotoxic concentration [2]: 14.01 µM
CC50 (in vitro): > 100 µM

CCOc1ccc(N(CC(=O)Nc2ccccc2C(=O)NCc2ccco2)S(=O)(=O)c2ccc(OC)c(OC)c2)cc1 [DC-RA106]
IC50 [1]: 24.7 µM
IC50 (NanoLuc luciferase): > 100 µM
SI, selectivity index (SARS-CoV-2-S pseudovirus): >1.41
IC50 (SARS-CoV-2-S pseudovirus): 70.8 µM
%I, SARS-CoV-2-S pseudovirus inhibition ratio at MNCC (SARS-CoV-2-S pseudovirus): 0.14%
Kd (human ACE2): > 100 µM
Binding to human ACE2 by SPR (in words) (human ACE2): could bind
Kd (SARS-CoV-2 S-RBD): > 100 µM
Binding to SARS-CoV-2 S-RBD by SPR (in words) (SARS-CoV-2 S-RBD): showed binding
CC50 / IC50 Cytotox (HEK293 cell proliferation) (HEK293 cells): > 100.00 µM
MNCC, maximum non-cytotoxic concentration [2]: 13.24 µM
CC50 (in vitro): > 100 µM

C=Cc1c(C)c2cc3nc(cc4[nH]c(cc5nc(cc1[nH]2)C(C)=C5CCC(=O)O)c(CCC(=O)OC)c4C)[C@@]1(C)C3=CC=C(C(=O)OC)[C@H]1C(=O)OC [Visudyne]
Antiviral activity against SARS-CoV-2 pseudovirus (in words) (SARS-CoV-2 pseudovirus; cytotoxicity data not reported, ref Fu et al., 2020): intense antiviral activity

C[C@@]1(C(=O)O)CC[C@]2(C)CC[C@]3(C)C4=CC(=O)c5c(cc(O)c(O)c5C=O)[C@]4(C)CC[C@@]3(C)[C@@H]2C1 [demethylzeylasteral]
Inhibitory activity against SARS-CoV-2 pseudovirus (SARS-CoV-2 pseudovirus; under nontoxic concentration, ref Zhu et al., 2021): approximately 7%

Reference: PMC8504695, “Structure-Based Virtual Screening and Identification of Potential Inhibitors of SARS-CoV-2 S-RBD and ACE2 Interaction” (Frontiers in Chemistry, 2021)
